Target: T1, TRAP1 enzyme (Homo sapiens, UniProt Q12931)
T1 construct: 150 nM Trap1 enzyme was incubated with various concentrations of the test compound
T1 sequence (Q12931 60-704): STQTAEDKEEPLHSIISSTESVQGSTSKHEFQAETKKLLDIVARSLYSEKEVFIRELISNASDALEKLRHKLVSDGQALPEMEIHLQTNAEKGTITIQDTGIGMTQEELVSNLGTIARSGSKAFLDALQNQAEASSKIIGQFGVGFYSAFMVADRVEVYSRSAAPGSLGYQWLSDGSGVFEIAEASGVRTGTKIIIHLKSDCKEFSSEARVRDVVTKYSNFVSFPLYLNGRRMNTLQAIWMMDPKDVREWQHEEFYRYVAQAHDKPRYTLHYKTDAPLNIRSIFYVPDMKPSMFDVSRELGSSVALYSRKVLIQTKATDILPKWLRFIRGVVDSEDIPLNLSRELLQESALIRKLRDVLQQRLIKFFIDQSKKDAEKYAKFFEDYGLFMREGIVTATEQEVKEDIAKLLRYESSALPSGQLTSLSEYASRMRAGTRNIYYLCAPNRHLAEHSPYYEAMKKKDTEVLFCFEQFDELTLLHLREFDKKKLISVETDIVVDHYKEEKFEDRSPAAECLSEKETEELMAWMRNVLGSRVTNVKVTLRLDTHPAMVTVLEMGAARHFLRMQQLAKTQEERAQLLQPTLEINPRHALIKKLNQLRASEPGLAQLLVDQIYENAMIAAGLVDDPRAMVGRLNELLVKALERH
Test: ADP Glo assay of TRAP1 ATPase activity
Type: biochemical
Conditions: for EC50: concentration for half maximal activation, read-out: ADP GLO DRC: GeoMean EC50; for Emax: maximal percent activation, read-out: ADP GLO DRC: Mean Emax
Protocol: Potency of test compounds to modulate the ATPase activity of TRAP1 enzyme was evaluated using ADP Glo assay. The assay is based on quantification of the ADP generated from ATP in the ATPase reaction. The assay is performed in two steps; first, after the ATPase reaction an equal volume of ADP-Glo™ Reagent is added to terminate the ATPase reaction and deplete the remaining ATP. Second, the Kinase Detection Reagent is added to simultaneously convert ADP to ATP and allow the newly synthesized ATP to be measured using a luciferase/luciferin reaction.
All the assays were carried out in a 384-well Proxiplate. The buffer used was 25 mM Pipes pH-7.5, 40 mM KCl, 0.05 mM MgCl2, 0.025% BSA, 0.316 mM EGTA, 0.003% Empigen, 0.01% Igepal. 150 nM Trap1 enzyme was incubated with various concentrations of the test compound (0.79 μM-100 μM) at 37° C. for 30 mins (except in blank wells). 20 μM ATP was added to each well to start the reaction. The plate was spun for 1 min at 1200 rpm and then incubated at 37° C. for 60 mins. 5 μl of ADP Glo reagent was added to all the wells and spun the plate for 1 min at 1200 rpm and kept it on a shaker at ambient temperature for 60 mins. 10 μl of kinase detection mix was added to all the wells and the plate was read for Luminescence at 495 nm. The amount of ADP released was estimated from ATP/ADP standard curve generated at the same experimental conditions. Emax (Maximal percent activation) and EC50 (concentration for half maximal activation) were estimated by fitting the dose response data to a sigmoidal curve fitting equation using Graphpad Prism software V. 8.

EC50 [µM]	Emax [%]	Compound
10 to 20	160 to 199	COc1ncc(NC(=O)c2csc(-c3ccccc3)n2)cc1S(=O)(=O)Nc1ccc(Cl)cn1 [compound 1385, N-(5-(N-(5-chloropyridin-2-yl)sulfamoyl)-6-methoxypyridin-3-yl)-2-phenylthiazole-4-carboxamide]
< 10	200 to 300	COc1cccc(OC)c1NS(=O)(=O)c1cc(NC(=O)c2csc(-c3ccccc3)n2)cnc1OC [compound 1386, N-(5-(N-(2,6-dimethoxyphenyl)sulfamoyl)-6-methoxypyridin-3-yl)-2-phenylthiazole-4-carboxamide]
10 to 20	119 to 159	COc1ncc(NC(=O)c2csc(-c3ccccc3)n2)cc1S(=O)(=O)Nc1c(C)cc(Cl)cc1C [compound 1388, N-(5-(N-(4-chloro-2,6-dimethylphenyl)sulfamoyl)-6-methoxypyridin-3-yl)-2-phenylthiazole-4-carboxamide]
< 10	119 to 159	COc1ncc(NC(=O)c2csc(-c3ccccc3)n2)cc1S(=O)(=O)Nc1c(C)cc(F)cc1C [compound 1389, N-(5-(N-(4-fluoro-2,6-dimethylphenyl)sulfamoyl)-6-methoxypyridin-3-yl)-2-phenylthiazole-4-carboxamide]
10 to 20	160 to 199	Cc1cnc(NC(=O)c2ncc(-c3ccccc3)o2)cc1S(=O)(=O)Nc1ccc(Cl)cc1 [compound 1390, N-(4-(N-(4-chlorophenyl)sulfamoyl)-5-methylpyridin-2-yl)-5-phenyloxazole-2-carboxamide]
< 10	119 to 159	CCc1cccc(C)c1NS(=O)(=O)c1cc(NC(=O)c2csc(-c3ccccc3)n2)cnc1OC [compound 1393, N-(5-(N-(2-ethyl-6-methylphenyl)sulfamoyl)-6-methoxypyridin-3-yl)-2-phenylthiazole-4-carboxamide]
20 to 100	160 to 199	COc1ncc(NC(=O)c2cccc3ncn(C)c23)cc1S(=O)(=O)Nc1c(C)cccc1C [compound 1394, N-(5-(N-(2,6-dimethylphenyl)sulfamoyl)-6-methoxypyridin-3-yl)-1-methyl-1H-benzo[d]imidazole-7-carboxamide]
20 to 100	200 to 300	COc1ncc(NC(=O)c2cn(C)c3ncccc23)cc1S(=O)(=O)Nc1c(C)cccc1C [compound 1395, N-(5-(N-(2,6-dimethylphenyl)sulfamoyl)-6-methoxypyridin-3-yl)-1-methyl-1H-pyrrolo[2,3-b]pyridine-3-carboxamide]
10 to 20	160 to 199	COc1ncc(NC(=O)c2scc(C)c2Cl)cc1S(=O)(=O)Nc1c(C)cccc1C [compound 1398]
10 to 20	200 to 300	COc1ncc(NC(=O)c2ccc3nc(C)sc3c2)cc1S(=O)(=O)Nc1c(C)cccc1C [compound 1400, N-(5-(N-(2,6-dimethylphenyl)sulfamoyl)-6-methoxypyridin-3-yl)-2-methylbenzo[d]thiazole-6-carboxamide]
10 to 20	160 to 199	COc1ncc(NC(=O)c2cccc(-c3noc(C)n3)c2)cc1S(=O)(=O)Nc1c(C)cccc1C [compound 1401, N-(5-(N-(2,6-dimethylphenyl)sulfamoyl)-6-methoxypyridin-3-yl)-3-(5-methyl-1,2,4-oxadiazol-3-yl)benzamide]
10 to 20	160 to 199	COc1ncc(NC(=O)c2ccc(Cn3cc(Cl)cn3)cc2)cc1S(=O)(=O)Nc1c(C)cccc1C [compound 1402, 4-((4-chloro-1H-pyrazol-1-yl)methyl)-N-(5(N (2,6dimethylphenyl)sulfamoyl)-6-methoxypyridin-3-yl)benzamide]
20 to 100	> 300	COc1ncc(NC(=O)c2cnc3n2CCCC3)cc1S(=O)(=O)Nc1c(C)cccc1C [compound 1404, N-(5-(N-(2,6-dimethylphenyl)sulfamoyl)-6-methoxypyridin-3-yl)-5,6,7,8-tetrahydroimidazo[1,2-a]pyridine-3-carboxamide]
< 10	119 to 159	COc1ncc(NC(=O)c2csc(-c3ccccc3)n2)cc1S(=O)(=O)Nc1cccc(C#N)c1C [compound 1406, N-(5-(N-(3-cyano-2-methylphenyl)sulfamoyl)-6-methoxypyridin-3-yl)-2-phenylthiazole-4-carboxamide]
< 10	119 to 159	COc1ncc(NC(=O)c2csc(-c3ccc(F)cc3)n2)cc1S(=O)(=O)Nc1c(C)cccc1C [compound 1413, N-(5-(N-(2,6-dimethylphenyl)sulfamoyl)-6-methoxypyridin-3-yl)-2-(4-fluorophenyl)thiazole-4-carboxamide]
20 to 100	200 to 300	COc1ncc(NC(=O)c2csc(-c3ccccc3)n2)cc1S(=O)(=O)Nc1c(C)nn(C)c1C [compound 1417, N-(6-methoxy-5-(N-(1,3,5-trimethyl-1H-pyrazol-4-yl)sulfamoyl)pyridin-3-yl)-2-phenylthiazole-4-carboxamide]
< 10	119 to 159	CCc1cccc(CC)c1NS(=O)(=O)c1cc(NC(=O)c2csc(-c3ccccc3)n2)cnc1OC [compound 1418, N-(5-(N-(2,6-diethylphenyl)sulfamoyl)-6-methoxypyridin-3-yl)-2-phenylthiazole-4-carboxamide]
10 to 20	119 to 159	Cc1c[n+]([O-])c(NC(=O)c2ncc(-c3ccccc3)o2)cc1S(=O)(=O)Nc1ccc(Cl)cc1 [compound 1420, 4-(N-(4-chlorophenyl)sulfamoyl)-5-methyl-2-(5-phenyloxazole-2-carboxamido) pyridine 1-oxide]
< 10	200 to 300	COc1ncc(NC(=O)c2noc3ccccc23)cc1S(=O)(=O)Nc1c(C)cccc1C [compound 1421, N-(5-(N-(2,6-dimethylphenyl)sulfamoyl)-6-methoxypyridin-3-yl) benzo[d]isoxazole-3-carboxamide]
< 10	160 to 199	COc1ncc(NC(=O)c2nn(C)c3ccccc23)cc1S(=O)(=O)Nc1c(C)cccc1C [compound 1423, N-(5-(N-(2,6-dimethylphenyl)sulfamoyl)-6-methoxypyridin-3-yl)-1-methyl-1H-indazole-3-carboxamide]
10 to 20	200 to 300	COc1ncc(NC(=O)c2nn(C)c3c2CCCC3)cc1S(=O)(=O)Nc1c(C)cccc1C [compound 1424, N-(5-(N-(2,6-dimethylphenyl)sulfamoyl)-6-methoxypyridin-3-yl)-1-methyl-4,5,6,7-tetrahydro-1H-indazole-3-carboxamide]
< 10	160 to 199	COc1ncc(NC(=O)c2csc3c2CCC3)cc1S(=O)(=O)Nc1c(C)cccc1C [compound 1425, N-(5-(N-(2,6-dimethylphenyl)sulfamoyl)-6-methoxypyridin-3-yl)-5,6-dihydro-4H-cyclopenta[b]thiophene-3-carboxamide]
10 to 20	160 to 199	COc1ncc(NC(=O)c2cnc(-c3ccccc3)[nH]2)cc1S(=O)(=O)Nc1ccc(Cl)cc1 [compound 1481, N-(5-(N-(4-chlorophenyl)sulfamoyl)-6-methoxypyridin-3-yl)-2-phenyl-1H-imidazole-5-carboxamide]
< 10	160 to 199	COc1cccc(C)c1NS(=O)(=O)c1cc(NC(=O)c2coc(-c3ccccc3)n2)cnc1OC [compound 1484, N-(6-methoxy-5-(N-(2-methoxy-6-methylphenyl)sulfamoyl)pyridin-3-yl)-2-phenyloxazole-4-carboxamide]
